Where a name gives a salt, the structure may show the parent alone.
Target: T1, proton pump (H+/K+-ATPase) (Sus scrofa, UniProt P19156)
T1 construct: Gastric vesicles were prepared from hog stomach via centrifugal separation; from tissue; host or cells: hog stomach (gastric vesicles, method of Rabon et al. 1988)
Experiment: Measurement of inhibitory effects on proton pump (H+/K+-ATPase) activities
Format: biochemical
Conditions: hog gastric vesicles, K+-specific H+/K+-ATPase activity, Tris-HCl buffer pH 7.4, 37° C. for 40 minutes, malachite green Pi readout
Outline: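 Hog gastric vesicles in 60 mmol/l Tris-HCl pH 7.4 with 0.5% DMSO were treated with compounds at room temperature; reaction was started with 10 μl of 10 mmol/l ATP stock. Released Pi was read at 570 nm, K+-specific activity taken as the ±K+ difference. IC50 from 4-parameter logistic fit.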

T1 sequence (P19156 whole entry): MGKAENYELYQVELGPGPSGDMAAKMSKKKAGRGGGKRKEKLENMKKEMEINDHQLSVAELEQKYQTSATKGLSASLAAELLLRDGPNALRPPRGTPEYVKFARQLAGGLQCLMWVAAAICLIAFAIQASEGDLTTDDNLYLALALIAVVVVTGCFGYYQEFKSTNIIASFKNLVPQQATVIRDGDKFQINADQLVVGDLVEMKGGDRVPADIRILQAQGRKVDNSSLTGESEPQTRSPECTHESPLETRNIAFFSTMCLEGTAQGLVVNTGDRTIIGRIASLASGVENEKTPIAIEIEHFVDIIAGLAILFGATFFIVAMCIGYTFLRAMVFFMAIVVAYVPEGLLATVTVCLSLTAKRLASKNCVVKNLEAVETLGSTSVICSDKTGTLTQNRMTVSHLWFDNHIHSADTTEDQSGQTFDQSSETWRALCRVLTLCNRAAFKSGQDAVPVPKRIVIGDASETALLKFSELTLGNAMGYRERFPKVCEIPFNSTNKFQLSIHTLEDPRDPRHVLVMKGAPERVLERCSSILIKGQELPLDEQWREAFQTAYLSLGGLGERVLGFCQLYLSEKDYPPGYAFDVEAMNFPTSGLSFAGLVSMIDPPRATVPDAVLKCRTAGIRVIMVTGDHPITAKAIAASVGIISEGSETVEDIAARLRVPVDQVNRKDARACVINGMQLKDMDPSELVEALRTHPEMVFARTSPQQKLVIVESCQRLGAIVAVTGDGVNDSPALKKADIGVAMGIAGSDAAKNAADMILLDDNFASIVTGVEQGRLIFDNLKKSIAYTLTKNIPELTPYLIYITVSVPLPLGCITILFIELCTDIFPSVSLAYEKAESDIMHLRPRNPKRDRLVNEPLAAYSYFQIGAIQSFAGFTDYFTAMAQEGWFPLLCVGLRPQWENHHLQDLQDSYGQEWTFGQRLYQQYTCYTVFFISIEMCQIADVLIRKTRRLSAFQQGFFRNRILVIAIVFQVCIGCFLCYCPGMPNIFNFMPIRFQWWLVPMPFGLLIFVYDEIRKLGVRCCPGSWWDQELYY
T1 sequence (P18434 whole entry partner): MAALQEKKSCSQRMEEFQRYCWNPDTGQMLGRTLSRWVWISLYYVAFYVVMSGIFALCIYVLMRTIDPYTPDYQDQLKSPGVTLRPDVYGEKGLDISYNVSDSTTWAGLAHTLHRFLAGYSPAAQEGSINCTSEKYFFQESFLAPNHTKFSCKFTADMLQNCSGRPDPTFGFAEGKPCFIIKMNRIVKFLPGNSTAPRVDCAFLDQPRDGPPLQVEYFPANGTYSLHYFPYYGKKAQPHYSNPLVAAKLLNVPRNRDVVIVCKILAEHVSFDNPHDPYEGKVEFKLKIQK

IC50	SMILES
20 µM	COc1ccc(Nc2ccc3c(C(=O)N(C)C)cn(S(=O)(=O)c4cccnc4)c3c2)c(F)c1 [Example 324, 6-((2-fluoro-4-methoxyphenyl)amino)-N,N-dimethyl-1-(pyridin-3-ylsulfonyl)-1H-indol-3-carboxamide]
0.39 µM	CNCc1cn(S(=O)(=O)c2cccc(OC(F)(F)F)c2)c2cc(Nc3ccc(C)cc3Cl)ccc12 [Example 196, N-(2-chloro-4-methylphenyl)-3-((methylamino)methyl)-1-((3-(trifluoromethoxy)phenyl)sulfonyl)-1H-indol-6-amine hydrochloride]
0.15 µM	CNCc1cn(S(=O)(=O)c2cccc(OC(F)F)c2)c2cc(Nc3ccc(C)cc3Cl)ccc12 [Example 175, N-(2-chloro-4-methylphenyl)-1-((3-(difluoromethoxy)phenyl)sulfonyl)-3-((methylamino)methyl)-1H-indol-6-amine hydrochloride]
0.35 µM	CNCc1cn(S(=O)(=O)c2cccnc2)c2cc(Nc3cc(Cl)c(Cl)cc3Cl)ccc12 [Example 76, 3-((methylamino)methyl)-1-(pyridin-3-ylsulfonyl)-N-(2,4,5-trichlorophenyl)-1H-indol-6-amine hydrochloride]
2.22 µM	CNCc1cn(S(=O)(=O)c2cccnc2)c2cc(Nc3c(F)cc(Br)cc3Br)ccc12 [Example 93, N-(2,4-dibromo-6-fluorophenyl)-3-((methylamino)methyl)-1-(pyridin-3-ylsulfonyl)-1H-indol-6-amine hydrochloride]
0.56 µM	CNCc1cn(S(=O)(=O)c2cccnc2)c2cc(Nc3ccc(F)cc3F)ccc12 [Example 24, N-(2,4-difluorophenyl)-3-((methylamino)methyl)-1-(pyridin-3-ylsulfonyl)-1H-indol-6-amine hydrochloride]
0.71 µM	CNCc1cn(S(=O)(=O)c2cccc(F)c2)c2cc(Nc3ccc(C)cc3F)ccc12 [Example 136, N-(2-fluoro-4-methylphenyl)-1-((3-fluorophenyl)sulfonyl)-3-((methylamino)methyl)-1H-indol-6-amine hydrochloride]
24 µM	Cc1ccc(Nc2ccc3c(C(=O)N(C)C)cn(S(=O)(=O)c4cccnc4)c3c2)c(F)c1 [Example 322, 6-((2-fluoro-4-methylphenyl)amino)-N,N-dimethyl-1-(pyridin-3-ylsulfonyl)-1H-indol-3-carboxamide]
0.01 µM	CNCc1cn(S(=O)(=O)c2cccc(Cl)c2)c2cc(Nc3ccc(F)cc3Cl)ccc12 [Example 149, N-(2-chloro-4-fluorophenyl)-1-((3-chlorophenyl)sulfonyl)-3-((methylamino)methyl)-1H-indol-6-amine hydrochloride]
9.24 µM	CNCc1cn(S(=O)(=O)c2cccc(OC(F)F)c2)c2cc(-c3cccnc3C(F)(F)F)ccc12 [Example 261, 1-(1-((3-(difluoromethoxy)phenyl)sulfonyl)-6-(2-(trifluoromethyl)pyridin-3-yl)-1H-indol-3-yl)-N-methylmethanamine hydrochloride]
0.25 µM	CNCc1cn(S(=O)(=O)c2cncc(F)c2)c2cc(Nc3ccc(F)cc3Cl)cnc12 [Example 352, N-(2-chloro-4-fluorophenyl)-1-((5-fluoropyridin-3-yl)sulfonyl)-3-((methylamino)methyl)-1H-pyrrolo[3,2-b]pyridin-6-amine hydrochloride]
0.29 µM	CNCc1cn(S(=O)(=O)c2cccnc2)c2cc(Nc3cc(C)c(Cl)cc3C)ccc12 [Example 75, N-(4-chloro-2,5-dimethylphenyl)-3-((methylamino)methyl)-1-(pyridin-3-ylsulfonyl)-1H-indol-6-amine hydrochloride]
0.87 µM	CNCc1cn(S(=O)(=O)c2cccnc2)c2cc(Nc3c(F)cc(F)cc3Br)ccc12 [Example 91, N-(2-bromo-4,6-difluorophenyl)-3-((methylamino)methyl)-1-(pyridin-3-ylsulfonyl)-1H-indol-6-amine hydrochloride]
40 µM	CN(C)C(=O)c1cn(S(=O)(=O)c2cccnc2)c2cc(Nc3ccc(OC(F)(F)F)cc3Cl)ccc12 [Example 327, 6-((2-chloro-4-(trifluoromethoxy)phenyl)amino)-N,N-dimethyl-1-(pyridin-3-ylsulfonyl)-1H-indol-3-carboxamide]
1.31 µM	CNCc1cn(S(=O)(=O)c2cccnc2)c2cc(Nc3cc(OC)cc(OC)c3)ccc12 [Example 63, N-(3,5-dimethoxyphenyl)-3-((methylamino)methyl)-1-(pyridin-3-ylsulfonyl)-1H-indol-6-amine hydrochloride]
0.42 µM	CNCc1cn(S(=O)(=O)c2cccnc2)c2cc(Nc3ccc(Cl)cc3C)ccc12 [Example 27, N-(4-chloro-2-methylphenyl)-3-((methylamino)methyl)-1-(pyridin-3-ylsulfonyl)-1H-indol-6-amine hydrochloride]

IC50	SMILES
0.79 µM	CNCc1cn(S(=O)(=O)c2cccc(Cl)c2)c2cc(Cc3ccc(C)cc3Cl)ccc12 [Example 301, 1-(6-(2-chloro-4-methylbenzyl)-1-((3-chlorophenyl)sulfonyl)-1H-indol-3-yl)-N-methylmethanamine]
20 µM	Cc1ccc(Nc2ccc3c(C(=O)N(C)C)cn(S(=O)(=O)c4cccnc4)c3c2)c(Cl)c1 [Example 323, 6-((2-chloro-4-methylphenyl)amino)-N,N-dimethyl-1-(pyridin-3-ylsulfonyl)-1H-indol-3-carboxamide]
0.45 µM	CNCc1cn(S(=O)(=O)c2cccc(OC(F)(F)F)c2)c2cc(Nc3ccc(C)c(F)c3F)ccc12 [Example 203, N-(2,3-difluoro-4-methylphenyl)-3-((methylamino)methyl)-1-((3-(trifluoromethoxy)phenyl)sulfonyl)-1H-indol-6-amine hydrochloride]
60 µM	COc1ccc(Nc2ccc3c(C(=O)N(C)C)cn(S(=O)(=O)c4cccnc4)c3c2)c(Cl)n1 [Example 332, 6-((2-chloro-6-methoxypyridin-3-yl)amino)-N,N-dimethyl-1-(pyridin-3-ylsulfonyl)-1H-indol-3-carboxamide]
0.4 µM	CNCc1cn(S(=O)(=O)c2cccnc2)c2cc(Nc3c(Cl)cc(Cl)cc3Cl)ccc12 [Example 87, 3-((methylamino)methyl)-1-(pyridin-3-ylsulfonyl)-N-(2,4,6-trichlorophenyl)-1H-indol-6-amine hydrochloride]
6.49 µM	CNCc1cn(S(=O)(=O)c2cccc(C#N)c2)c2cc(Nc3ccc(C)cc3F)ccc12 [Example 227, 3-((6-((2-fluoro-4-methylphenyl)amino)-3-((methylamino)methyl)-1H-indol-1-yl)sulfonyl)benzonitrile hydrochloride]
0.86 µM	CNCc1cn(S(=O)(=O)c2cccnc2)c2cc(Cc3ccc(OC(F)(F)F)cc3Cl)ccc12 [Example 280, 1-(6-(2-chloro-4-(trifluoromethoxy)benzyl)-1-(pyridin-3-ylsulfonyl)-1H-indol-3-yl)-N-methylmethanamine hydrochloride]
1.24 µM	COc1ccc(Nc2ccc3c(CN(C)C)cn(S(=O)(=O)c4cccc(C(F)(F)F)c4)c3c2)c(Cl)n1 [Example 319, N-(2-chloro-6-methoxypyridin-3-yl)-3-((dimethylamino)methyl)-1-((3-(trifluoromethyl)phenyl)sulfonyl)-1H-indol-6-amine]
0.27 µM	CNCc1cn(S(=O)(=O)c2cccc(F)c2)c2cc(Cc3ccc(C)cc3Cl)ccc12 [Example 299, 1-(6-(2-chloro-4-methylbenzyl)-1-((3-fluorophenyl)sulfonyl)-1H-indol-3-yl)-N-methylmethanamine]
0.65 µM	CNCc1cn(S(=O)(=O)c2cccnc2)c2cc(Cc3ccc(Cl)nc3Cl)ccc12 [Example 285, 1-(6-((2,6-dichloropyridin-3-yl)methyl)-1-(pyridin-3-ylsulfonyl)-1H-indol-3-yl)-N-methylmethanamine hydrochloride]
0.23 µM	CNCc1cn(S(=O)(=O)c2cccnc2)c2cc(Nc3ccc(F)cc3C)cnc12 [Example 346, N-(4-fluoro-2-methylphenyl)-3-((methylamino)methyl)-1-(pyridin-3-ylsulfonyl)-1H-pyrrolo[3,2-b]pyridin-6-amine hydrochloride]
1.98 µM	CNCc1cn(S(=O)(=O)c2cccnc2)c2cc(Nc3cccnc3C(F)(F)F)ccc12 [Example 109, 3-((methylamino)methyl)-1-(pyridin-3-ylsulfonyl)-N-(2-(trifluoromethyl)pyridin-3-yl)-1H-indol-6-amine hydrochloride]
0.18 µM	CNCc1cn(S(=O)(=O)c2cccnc2)c2cc(Nc3ccc(F)cc3Cl)cnc12 [Example 347, N-(2-chloro-4-fluorophenyl)-3-((methylamino)methyl)-1-(pyridin-3-ylsulfonyl)-1H-pyrrolo[3,2-b]pyridin-6-amine hydrochloride]
2.62 µM	CNCc1cn(S(=O)(=O)c2ccc(C(C)(C)C)cc2)c2cc(Nc3ccc(C)cc3F)ccc12 [Example 231, 1-((4-(tert-butyl)phenyl)sulfonyl)-N-(2-fluoro-4-methylphenyl)-3-((methylamino)methyl)-1H-indol-6-amine hydrochloride]
0.57 µM	CNCc1cn(S(=O)(=O)c2cccc(F)c2)c2cc(Nc3ccc(C)cc3OC(F)(F)F)cnc12 [Example 340, 1-((3-fluorophenyl)sulfonyl)-N-(4-methyl-2-(trifluoromethoxy)phenyl)-3-((methylamino)methyl)-1H-pyrrolo[3,2-b]pyridin-6-amine hydrochloride]
3.02 µM	CCc1cc(Br)ccc1Nc1ccc2c(CNC)cn(S(=O)(=O)c3cccnc3)c2c1 [Example 43, N-(4-bromo-2-ethylphenyl)-3-((methylamino)methyl)-1-(pyridin-3-ylsulfonyl)-1H-indol-6-amine hydrochloride]

— patent US9676714B2, “Sulfonylindole derivatives and method for preparing the same” (Daewoong Pharmaceutical Co., Ltd., priority 2013, dated 2017)
